Assay results as given in patent publication US7094909B2, “HIV protease inhibitors, compositions containing the same, their pharmaceutical uses and materials for their synthesis” (priority 2001, dated 2006).
Read-outs that look alike come from different tables or passages of the source.

Assays:
[1] = system: HIV-1 (HIV-1 RF, HIV-1 NL4-3) in CEM-SS / MT-2 cells; assay: Cytopathic effect (CPE) inhibition assay (XTT/MTT dye reduction); type: cell-based
Procedure: T-cell lines, CEM-SS, and MT-2, and viruses HIV-1 RF and HIV-1 NL4-3 (pNL4-3) were obtained from the National Institutes of Health (AIDS Research and Reference Reagent Program, Bethesda, Md.).
Cytopathic Effect (CPE) Inhibition Assays
The ability of compounds to protect cells against HIV infection was measured by the […] dye reduction method, essentially as described (See Pauwels, R. Balzarini, J. Baba, M. Snoeck, R. Schols, D. Herdewijn, P. Desmyter, J. and De Clercq, E. 1988, “Rapid and automated tetrazolium-based colorimetric assay for the detection of anti-HIV compounds,”. J Virol. Methods., 20: 309–321 and Weislow, O. S. Kiser, R. Fine, D. L. Bader, J. Shoemaker, R. H. and Boyd, M. R. 1989. “New soluble-formazan assay for HIV-1 cytopathic effects: application to high-flux screening of synthetic and natural products for AIDS-antiviral activity”. J. Natl. Cancer Inst. 81:577–586). Subject cells were infected with test virus at an moi of 0.025 to 0.819 or mock infected with medium only and added at 2×10^4 cells per well into 96 well plates containing half-log dilutions of test compounds. Six days later, 50 μl of XTT (1 mg/ml XTT tetrazolium, 0.02 nM phenazine methosulfate) was added to the wells and the plate was reincubated for four hours. Viability, as determined by the amount of XTT formazan produced, was quantified spectrophotometrically by absorbance at 450 nm. Data from CPE assays were expressed as the percent of formazan produced in compound-treated cells compared to formazan produced in wells of uninfected, compound-free cells. The fifty percent effective concentration (EC50) was calculated as the concentration of compound that effected an increase in the percentage of formazan production in infected, compound-treated cells to 50% of that produced by uninfected, compound-free cells. The 50% cytotoxicity concentration (CC50) was calculated as the concentration of compound that decreased the percentage of formazan produced in uninfected, compound-treated cells to 50% of that produced in uninfected, compound-free cells. The therapeutic index was calculated by dividing the cytotoxicity (CC50) by the antiviral activity (EC50).

[2] = target: T1, HIV-1 protease (Q7S mutant form) (Human immunodeficiency virus type 1 group M subtype B, UniProt P04585, Q495S); assay: HIV-1 Protease RET assay; type: biochemical
T1 construct: made in house
Procedure: Ki's for the inhibitors of HIV-1 protease were determined using a resonance energy transfer (RET) assay. […] This enzyme is first partially purified as inclusion bodies from cell lysate. It is then solublized in 8M urea and passed through a Q-Sepharose column (Pharmacia) for further purification. To refold this protein, samples containing Q7S is dialyzed into 50 mM sodium phosphate pH 7.0, 50 mM NaCl, 10 mM DTT, and 10% glycerol.
The commercially available peptide substrate (Molecular Probes Cat. # H-2930) RE(EDANS)SQNYPIVQK(DABCYL)R is used to assess activity and Ki's. This peptide is cleaved quantitatively by HIV-1 Pr at the Tyr-Pro bond. The EDANS fluorophore absorbs at 340 nm and emits at 490 nm. The reaction is carried out in a 96 well plate in a total volume of 100 µL and is run for 12 minutes at 37 C under steady-state conditions with 5 µM substrate and 2 nM active dimer enzyme concentration. The literature value Km for this substrate and enzyme is 103+/−8 µM (See Matayoshi, et al., “Novel Fluorogenic Substrates for Assaying Retroviral Proteases by Resonance Energy Transfer,” Science 247, 954 (1990)). The buffer for this reaction is 0.1M sodium acetate pH 4.8, 1M NaCl, 1 mM EDTA, 5 mM dithiothreitol, 10% dimethyl sulfoxide and 1 mg/ml bovine serum albumin. Inhibition curves are fit using the Morrison tight binding equation.

[3] = Human immunodeficiency virus 1, NL43, unit inferred, read-out: EC50
[4] = Ave. Ki (nM), RET assay, Q7S enzyme, Morrison tight binding fit

Compound | Ki [2, 4] | other results
Cc1ccccc1CNC(=O)[C@@H]1C(C(=O)[C@@H](O)[C@H](Cc2ccccc2)NC(=O)c2cccc(O)c2C)[C@@H]2CC[C@@H]1C2 (stereo partly shown) | – | EC50 [1, 3]: ≥ 10 µM
Cc1ccccc1CNC(=O)[C@H]1C(C(=O)[C@@H](O)[C@H](Cc2ccccc2)NC(=O)c2cccc(O)c2C)[C@@H]2CC[C@@H]1C2 (stereo partly shown) | – | EC50 [1, 3]: ≥ 10 µM
CC1(C)SCN(C(=O)[C@@H](O)[C@H](Cc2ccccc2)NC(=O)NCc2ccccc2C(F)(F)F)[C@@H]1C(=O)NCc1ccccc1C(F)(F)F [Example B52, 3-{(2S,3S)-2-Hydroxy-4-phenyl-3-[3-(2-trifluoromethyl-benzyl)-ureido]-butyryl}-5,5-dimethyl-thiazolidine-4-carboxylic acid 2-trifluoromethyl-benzylamide] | 120 nM | –
Cc1ccccc1CNC(=O)[C@H]1N(C(=O)[C@@H](O)[C@H](Cc2ccccc2)NC(=O)Nc2cccc(F)c2)CSC1(C)C [Example B55, 3-{(2S,3S)-3-[3-(3-Fluoro-phenyl)-ureido]-2-hydroxy-4-phenyl-butyryl}-5,5-dimethyl-thiazolidine-4-carboxylic acid 2-methyl-benzylamide] | 679 nM | –
Cc1ccccc1CNC(=O)[C@H]1N(C(=O)C(O)C(Cc2ccccc2)NS(=O)(=O)c2ccc(C#N)cc2)CSC1(C)C (stereo partly drawn) [Example B58, 3-[(2S,3S)-3-(4-Cyano-benzenesulfonylamino)-2-hydroxy-4-phenyl-butyryl]-5,5-dimethyl-thiazolidine-carboxylic acid 2-methyl-benzylamide] | 240 nM | –
CC1(C)SCN(C(=O)[C@@H](O)[C@H](Cc2ccccc2)NC(=O)NCc2ccccc2)[C@@H]1C(=O)NCc1ccccc1 [Example B61, 3-[(2S,3S)-3-(3-Benzyl-ureido)-2-hydroxy-4-phenyl-butyryl]-5,5-dimethyl-thiazolidine-4-carboxylic acid benzylamide] | 16.9 nM | –
Cc1ccccc1CNC(=O)N[C@@H](Cc1ccccc1)[C@H](O)C(=O)N1CSC(C)(C)[C@H]1C(=O)NCc1ccccc1C [Example B62, 3-{(2S,3S)-2-Hydroxy-3-[3-(2-methyl-benzyl)-ureido]-4-phenyl-butyryl}-5,5-dimethyl-thiazolidine-4-carboxylic acid 2-methyl-benzylamide] | 4.2 nM | –
COc1ccc(CNC(=O)NC(Cc2ccccc2)C(O)C(=O)N2CSC(C)(C)[C@H]2C(=O)NCc2ccc(OC)cc2)cc1 (stereo partly drawn) [Example B63, 33-{(2S,3S)-2-Hydroxy-3-[3-(4-methoxy-benzyl)-ureido]-4-phenyl-butanoyl}-5,5-dimethyl-thiazolidine-4-carboxylic acid 4-methoxy-benzylamide] | 7.8 nM | –
Cc1ccccc1CNC(=O)NC(Cc1ccccc1)C(O)C(=O)N1CSC(C)(C)[C@H]1C(=O)NCc1ccncc1 (stereo partly drawn) [Example B66, 3-{(2S,3S)-2-Hydroxy-3-[3-(2-methyl-benzyl)-ureido]-phenyl-butyryl}-5,5-dimethyl-thiazolidine-4-carboxylic acid (pyridin-4-ylmethyl)-amide] | 5.2 nM | –
COc1ccc(CNC(=O)N[C@@H](Cc2ccccc2)[C@H](O)C(=O)N2CSC(C)(C)[C@H]2C(=O)NCc2ccccc2C)cc1OC [Example B74, (R)-3-{(2S,3S)-3-[3-(3,4Dimethoxy-benzyl)ureido]-2-hydroxy-4-phenyl-butyryl}-5,5-dimethyl-thiazolidine-4-carboxylic acid 2-methyl-benzylamide] | 39 nM | –
Cc1ccccc1CNC(=O)[C@H]1N(C(=O)[C@@H](O)[C@H](Cc2ccccc2)NC(=O)NCc2cccc(C(F)(F)F)c2)CSC1(C)C [Example B75, (R)-3-{(2S,3S)-2-Hydroxy-4-phenyl-3-[3-(3-trifluoromethyl-benzyl)-ureido]-butyryl}-5,5-dimethyl-thiazolidine-4-carboxylic acid 2-methyl-benzylamide] | 81 nM | –
COc1cccc(CNC(=O)N[C@@H](Cc2ccccc2)[C@H](O)C(=O)N2CSC(C)(C)[C@H]2C(=O)NCc2ccccc2C)c1 [Example B76, (R)-3-{(2S,3S)-2-Hydroxy-3-[3-(3-methoxy-benzyl)-ureido]-4-phenyl-butyryl}-5,5-dimethyl-thiazolidine-4-carboxylic acid 2-methyl-benzylamide] | 11.2 nM | –
CC(C)=CCNC(=O)[C@@H]1CC(F)(F)CN1C(=O)[C@@H](O)[C@H](Cc1ccccc1)NC(=O)c1cccc(O)c1C [Example C9, (S)-4,4-Difluoro-1-((2S,3S)-2-hydroxy-3-{[1-(3-hydroxy-2-methyl-phenyl)-methanoyl]-amino}-4-phenyl-butanoyl)-pyrrolidine-2-carboxylic acid (3-methyl-but-2-enyl)-amide] | 6.3 nM | –
Cc1c(O)cccc1C(=O)N[C@@H](Cc1ccccc1)[C@H](O)C(=O)N1CC(F)(F)C[C@H]1C(=O)NCc1c(F)cccc1Cl [Example C14, (S)-4,4-Difluoro-1-[(2S,3S)-2-hydroxy-3-(3-hydroxy-2-methyl-benzoylamino)-4-phenyl-butyryl]-pyrrolidine-2-carboxylic acid 2-chloro-6-fluoro-benzylamide] | 2.5 nM | –
Cc1c(O)cccc1C(=O)N[C@@H](Cc1ccccc1)[C@H](O)C(=O)N1CO[C@@H](C)[C@H]1C(=O)N[C@@H]1C=CCCC1 [Example C28, (4S,5S)-3-((2S,3S)-2-Hydroxy-3-{[1-(3-hydroxy-2-methyl-phenyl)-methanoyl]-amino}-4phenyl-butanoyl)-5-methyl-oxazoldine-4-carboxylic acid (S)-cyclohex-2-enylamide] | 8.4 nM | –
Cc1ccccc1CNC(=O)[C@@H]1CC(F)(F)CN1C(=O)[C@@H](O)[C@H](Cc1ccccc1)NC(=O)c1c(C)noc1C [Example C43, 3,5-Dimethyl-isoxazole-4-carboxylic acid {1-benzyl-3-[4,4-difluoro-2-(2-methyl-benzylcarbamoyl)-pyrrolidin-1-yl]-2-hydroxy-3-oxo-propyl}-amide] | 21 nM | –
C#CCOC(=O)N[C@@H](Cc1ccccc1)[C@H](O)C(=O)N1CC(F)(F)C[C@H]1C(=O)NCc1ccccc1C [Example C44, {1-Benzyl-3-[4,4-difluoro-2-(2-methyl-benzylcarbamoyl)-pyrrolidin-1-yl]-2-hydroxy-3-oxo-propyl}-carbamic acid prop-2-ynyl ester] | 14.8 nM | –
Cc1ccccc1CNC(=O)[C@@H]1C[C@@H]2CCCC[C@@H]2CN1C(=O)[C@@H](O)[C@H](Cc1ccccc1)NC(=O)c1cccc(O)c1C [Example C49, (3S,4aS,8aS)-2-((2S,3S)-2-Hydroxy-3-{[1-(3-hydroxy-2-methyl-phenyl)-methanoyl]-amino}-4-phenyl-butanoyl)-decahydro-isoquinoline-3-carboxylic acid 2-methyl-benzylamide] | 150 nM | –
C=CCNC(=O)C1N(C(=O)[C@@H](O)[C@H](Cc2cccc(F)c2)NC(=O)c2cccc(O)c2C)CC(F)(F)C1(C)C (stereo partly drawn) [Example D2, (R)-3-((2S,3R)-4,4-Difluoro-1-[4(3-fluoro-phenyl)-2-hydroxy-3-(3-hydroxy-2-methyl-benzoylamino)-butyryl])-3,3-dimethyl-pyrrolidine-2-carboxylic acid allyiamide] | – | EC50 ([1]; Human immunodeficiency virus 1, NL43, read-out: Ave CPE EC50): 0.016 µM
CC1(C)SCN(C(=O)[C@@H](O)[C@H](Cc2ccccc2)NC(=O)NCc2ccccc2Cl)C1C(=O)NCc1ccccc1Cl (stereo partly shown) [drawing 953] | – | Ki ([2]; Ki, unit inferred): 74 nM
Cc1ccccc1CNC(=O)[C@H]1N(C(=O)[C@@H](O)[C@H](Cc2ccccc2)NC(=O)CCNC(=O)OC(C)(C)C)CSC1(C)C [drawing 1035] | – | Ki ([2]; Ki, unit inferred): 94 nM
Cc1ccccc1CNC(=O)[C@H]1N(C(=O)[C@@H](O)[C@H](Cc2ccccc2)NC(=O)CCNC(=O)OC(C)(C)C)CSC1(C)C [drawing 1038] | – | Ki ([2]; Ki, unit inferred): 48 nM
